Assay results published in PMC8391421, “Identification of Novel Positive Allosteric Modulators of Neurotrophin Receptors for the Treatment of Cognitive Dysfunction” (Cells, 2021).

Tests used:
TrkC = biological target: T1, TrkC (Homo sapiens, UniProt Q16288); assay: TrkC PathHunter cell-based assay (U2OS-TrkC/p75)
T1 construct: host or cells: U2OS (human osteosarcoma), co-expressing p75
From the text: The human osteosarcoma cell lines U2OS-TrkA/p75, U2OS-TrkB/p75, U2OS-TrkC/p75, U2OS-ratTrkA/p75, U2OS-FGFR1 (fibroblast growth factor receptor 1) as well as the human embryonic kidney cell line HEK293-IGF1R (insulin-like growth factor 1 receptor) from DiscoverX, Birmingham, United Kingdom, were used in the in vitro experiments. Eagle’s minimum essential medium (EMEM) ATCC #30-2003 from LGC Standards AB, Borås, Sweden; Leibovitz’s L15 medium, RPMI1640, fetal bovine serum, horse serum, penicillin/streptomycin, and Hoechst dye purchased from Invitrogen, Gothenburg, Sweden, were also used. Black poly-D-lysine coated 384-well plates (Viewplate) were purchased from PerkinElmer, Upplands Väsby, Sweden, and white 384-well assay plates(3570) were purchased from Corning, Amsterdam, Netherlands. […] Recombinant intracellular domain (ICD) of TrkA (08-186) and single site biotinylated activated (08-486-20N) or non-activated TrkA (08-486-23N) were obtained from Carna Biosciences, Odense, Denmark. […]
U2OS cells were maintained subconfluent in EMEM supplemented with 10% FBS and penicillin/streptomycin/hygromycin and G418. […] The functional (complemented) β-gal will hydrolyze a substrate to generate a luminescence signal. The generated luminescence was read using an EnVision plate reader from PerkinElmer, Upplands Väsby, Sweden, or an ID5 plate reader from Molecular Devices, Berkshire, RG41 5TS UK. […]

Wistar rats = assay: Novel object recognition; type: in vivo, rat; conditions: 1 mg/kg
Procedure: The novel object recognition model was conducted by Suven Life Sciences Ltd. (Hyderabad, India) using male Wistar rats (n = 12/group). This study was performed in compliance with the requirements and in-house animal care and usage policy of the Institutional Animal Ethics Committee (IAEC). The experiment was conducted over a 5-day period. For the first 3 days, ACD855 or vehicle were administered to the animals. On Day 4, the rats were acclimatized to their respective arenas for 20 min and then returned to their home cages for the administration of ACD855 or vehicle (1 h post habituation phase). On Day 5, the rats were administered vehicle or ACD855 1 h prior to trial, donepezil (1 mg/kg) was injected 30 min prior to trial, and scopolamine (1 mg/kg) was injected 20 min prior to trial. 20 min after scopolamine administration, the rats were subjected to the familiarization phase. The experiment was performed as described by Lueptow. The discriminative index for the drug-treated groups was compared to that of the vehicle group by use of the Kruskal–Wallis test. The discriminative index is the ratio of time spent exploring the novel object divided by the sum of the time spent exploring the novel object and a familiar object in the choice trial.

T1 sequence (Q16288 32-839): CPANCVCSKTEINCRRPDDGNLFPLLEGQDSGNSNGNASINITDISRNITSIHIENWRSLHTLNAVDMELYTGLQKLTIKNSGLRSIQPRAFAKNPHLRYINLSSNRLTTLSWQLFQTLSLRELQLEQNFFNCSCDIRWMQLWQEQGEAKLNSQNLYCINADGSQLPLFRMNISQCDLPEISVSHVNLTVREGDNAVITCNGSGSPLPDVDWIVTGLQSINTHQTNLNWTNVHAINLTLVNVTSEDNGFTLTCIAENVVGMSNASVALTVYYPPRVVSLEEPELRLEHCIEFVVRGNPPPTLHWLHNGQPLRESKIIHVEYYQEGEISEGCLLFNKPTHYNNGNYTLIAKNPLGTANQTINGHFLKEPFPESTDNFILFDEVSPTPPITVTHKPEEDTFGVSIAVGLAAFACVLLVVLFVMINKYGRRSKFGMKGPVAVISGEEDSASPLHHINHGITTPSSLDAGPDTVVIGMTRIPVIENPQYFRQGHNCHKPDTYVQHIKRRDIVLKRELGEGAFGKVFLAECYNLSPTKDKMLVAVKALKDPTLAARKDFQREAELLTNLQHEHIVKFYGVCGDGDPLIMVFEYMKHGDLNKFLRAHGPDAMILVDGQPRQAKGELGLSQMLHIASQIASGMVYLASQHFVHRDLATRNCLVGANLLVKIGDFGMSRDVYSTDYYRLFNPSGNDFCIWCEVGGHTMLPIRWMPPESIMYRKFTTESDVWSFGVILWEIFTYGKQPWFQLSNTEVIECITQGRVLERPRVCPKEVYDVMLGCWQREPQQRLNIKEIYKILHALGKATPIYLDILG

SMILES: Cc1cc(-n2c(=O)[nH]c(=O)n(C)c2=O)ccc1Oc1ccc(S(=O)(=O)C(F)(F)F)cc1 [ACD855, Toltrazuril-sulfone]
- EC50 (TrkC): 800 nM
- TrkC Effect (efficacy) (TrkC): 56%
- time with novel object vs familiar object after scopolamine (Wistar rats): spent significantly more time with the novel object
